Source: patent publication US7297551B2, “Recombinant proteins and peptides for endotoxin biosensors, endotoxin removal, and anti-microbial and anti-endotoxin therapeutics” (priority 1998, dated 2007)
Read-outs that look alike come from different tables or passages of the source. Peptide text beside a SMILES is read from it.

How the values were obtained:
[1] = system: LPS-induced hTNF-α secretion from THP-1; assay: Inhibition of LPS-induced hTNF-α secretion from PMA-treated THP-1 cells; assay type: cell-based, human
Protocol: […] THP-1 cells were grown in RPMI 1640 medium supplemented with 10% FBS, penicillin (100 U/ml) and streptomycin (0.1 mg/ml), at 37° C. in a humidified environment in the presence of 5% CO2. The cells were maintained at a density between 2.5×10^5 and 2.5×10^6 cells/ml.
THP-1 cells were prepared for experiment by addition of a concentrated stock solution of phorbol myristate acetate (PMA, 0.3. mg/ml in dimethyl sulfoxide) to cell suspension to give a final concentration of 30 ng/ml PMA and 0.01% dimethyl sulfoxide (25). PMA-treated cell suspensions were immediately plated into 96-well microtitre plate at a density of 4×10^5 cells/ml and allowed to differentiate for 48 hours at 37° C. […] At indicated times, the culture medium was collected.

P. aeruginosa = assay: Microbicidal concentration (MBC) assay; assay type: cell-based, Pseudomonas aeruginosa
Protocol: Test strains cultured on Mueller-Hinton agar (MHA, Becton Dickinson, USA) were inoculated into 10 ml Mueller-Hinton broth (MHB, Becton Dickinson, USA) and grown overnight at 37° C. in a shaker incubator (Model 4536, Forma Scientific, Inc., USA) at 230 rpm. Overnight broth cultures were diluted to give a final cell density of 10^5 colony forming units/ml (cfu/ml). One hundred microliters of the bacterial suspension was dispensed into sterile polypropylene 8-strip PCR-tubes (Quality Scientific Plastics, USA). Eleven microliters of serially diluted sushi peptides, ranging in final concentrations of 0.03-4 μg/ml, were then added. The peptides were constituted at 10 times the required test concentrations in 0.01% acetic acid and 0.2% bovine serum albumin (BSA). Positive controls were cultures without test peptides. Uninoculated MHB was used as negative control. All tests were carried out in triplicate.
Cultures were incubated at 37° C. for 18-24 h, with the PCR-tubes held in horizontal position and shaken at 230 rpm. Cell counts were determined by standard drop-count method. The killing efficiency for the four sushi peptides were calculated based on standard drop-count method.

P. aeruginosa ATCC 27853 = assay: Killing rate assay; assay type: cell-based, Pseudomonas aeruginosa; details: peptides at 0.06 μg/ml, initial 10^9 cfu/ml
Text: The killing rate assay was adapted from the MBC test above, with different contact time of peptides with the bacteria arrested at regular intervals and plated for colony count. An initial density of 10^9 cfu/ml was used. […] This is one of the important features of an effective therapeutic agent.

Human erythrocytes = assay: Hemolysis assay, human erythrocytes; assay type: cell-based; details: at 100 μg/ml
Protocol: Human and rabbit erythrocytes were both used to test the hemolytic activities of the peptides. Whole blood was collected in heparinized sterile syringe, transferred to sterile borosilicate tube and centrifuged at 1200 g for 5 minutes at 4° C. The supernatant including the leukocytes above the erythrocyte pellet was discarded. The erythrocytes were washed 3 times using three volumes of prechilled pyrogen-free saline (PFS). An erythrocyte suspension at 0.4% was prepared for the hemolysis assay. Serial two-fold dilutions of the peptides was prepared in PFS and 100 μl aliquots were added to equal volumes of 0.4% erythrocyte solution in a 96-well microtiter plate (Nunclon™ Δ surface, Nunc) to give final peptide concentrations ranging from 6 to 100 μg/ml. The mixtures were incubated at 37° C. for 1 h. The intact erythrocytes were then pelleted by centrifuging at 1000 g for 5 min. One hundred μl of the supernatant was transferred to a new 96-well microtiter plate and the amount of hemoglobin released into the supernatant was determined by reading the absorbance at 414 nm using a SPECTRAmax™ 340 plate reader with SOFTmax PRO™ version 1.2.0. A positive control with 100 μl of 0.4% erythrocyte lysed in 1% Triton-X 100 was taken as 100% lysis. The negative control was the erythrocytes in PFS alone, which gave minimal lysis. This was taken as 0%.

[2] = Hill's plot for interaction between synthetic peptides and lipid A; assay type: binding; details: number of peptide molecules to 1 LPS molecule
[3] = Protection of galactosamine-sensitized mice from LPS-induced lethality; assay type: in vivo, C57BL/6J mice; details: 75 μg peptide, 2 ng LPS pre-incubated with peptide 30 minutes
Protocol: The anti-endotoxin potency of SSCrFCES was investigated in C57BL/6J mice. Mice are typically resistant to endotoxin. However, the sensitivity of mice to endotoxin can be enhanced >1,000-fold by co-injection with a liver-specific inhibitor, galactosamine (31). […] […] Lethality was observed over 3 days after injection. Statistical analysis were performed using the Kaplan-Meier test (32) and log rank pairwise test.

SMILES: CC[C@H](C)[C@H](NC(=O)[C@H](CCCCN)NC(=O)[C@H](C)NC(=O)[C@H](CCCCN)NC(=O)CNC(=O)[C@H](CCCCN)NC(=O)[C@H](CC(C)C)NC(=O)[C@H](CCCCN)NC(=O)[C@H](Cc1ccccc1)NC(=O)CN)C(=O)N[C@@H](CO)C(=O)N[C@@H](CS)C(=O)N[C@@H](CC(C)C)C(=O)N1CCC[C@H]1C(=O)N[C@@H](CC(N)=O)C(=O)NCC(=O)N[C@@H](CCC(N)=O)C(=O)N[C@@H](Cc1c[nH]c2ccccc12)C(=O)N[C@@H](CO)C(=O)N[C@@H](CC(N)=O)C(=O)N[C@@H](Cc1ccccc1)C(=O)N1CCC[C@H]1C(=O)N1CCC[C@H]1C(=O)N[C@@H](CCCCN)C(=O)N[C@@H](CS)C(=O)N[C@H](C(=O)N[C@@H](CCCNC(=N)N)C(=O)N[C@@H](CCC(=O)O)C(=O)N[C@@H](CS)C(=O)N[C@@H](C)C(=O)N[C@@H](CCSC)C(=O)N[C@H](C(=O)N[C@@H](CO)C(=O)N[C@@H](CO)C(=O)O)C(C)C)[C@@H](C)CC [S1Δ] (H-GFKLKGKAKISCLPNGQWSNFPPKCIRECAMVSS-OH; N-terminus and C-terminus assumed)
- IC50 ([1]; peptide needed for 50% suppression, read-out: Suppression of LPS-Induced cytokine TNF-α (50%)): 53 µM
- IC50 ([1]; read-out: 50% inhibition of LPS-induced TNF-α release, 10 ng/ml LPS, serum-free): 53.3 µM
- Anti-microbial Potency P. aeruginosa MBC90 (P. aeruginosa; MBC): 0.06 µg/mL
- MBC90 (P. aeruginosa; P. aeruginosa): (16 nM)
- Killing rate (time to achieve MBC90) (P. aeruginosa ATCC 27853): 7 min
- Hemolytic activity (Human erythrocytes): negligible haemolysis
- Stoichiometry of Binding Cooperativity Hill's Coefficient [2]: 1.06
- Mouse Protection Assay [3]: 40% at 75
